Legend:
Assay type in all cases: functional
Penicillium chrysogenum [1] = assay: Antimicrobial activity against at Penicillium chrysogenum at 25 ug/ml by cup-plate method; conditions: read-out: IZ
Rattus norvegicus [2] = assay: Anti-inflammatory activity in Rattus norvegicus Wistar albino (rat) assessed as protection against carrageenan-induced paw edema at 50 mg/kg after 60 min
Escherichia coli [3] = assay: Antimicrobial activity against at Escherichia coli at 100 ug/ml by cup-plate method; conditions: read-out: IZ
Aspergillus niger [4] = assay: Antimicrobial activity against at Aspergillus niger at 50 ug/ml by cup-plate method; conditions: read-out: IZ
Rattus norvegicus [5] = assay: Anti-inflammatory activity in Rattus norvegicus Wistar albino (rat) assessed as protection against carrageenan-induced paw edema at 50 mg/kg after 3 hr
Bacillus subtilis [6] = assay: Antimicrobial activity against at Bacillus subtilis at 100 ug/ml by cup plate method; conditions: read-out: IZ
Bacillus subtilis [7] = assay: Antimicrobial activity against at Bacillus subtilis at 50 ug/ml by cup plate method; conditions: read-out: IZ
Rattus norvegicus [8] = assay: Anti-inflammatory activity in Rattus norvegicus Wistar albino (rat) assessed as protection against carrageenan-induced paw edema at 50 mg/kg after 90 min
Mus musculus [9] = assay: Analgesic activity in Mus musculus Swiss albino (mouse) assessed as increase in reaction time of paw licking or jump response at 50 mg/kg, po after 30 min by hot plate method
Aspergillus niger [10] = assay: Antimicrobial activity against at Aspergillus niger at 100 ug/ml by cup-plate method; conditions: read-out: IZ
Rattus norvegicus [11] = assay: Anti-inflammatory activity in Rattus norvegicus Wistar albino (rat) assessed as protection against carrageenan-induced paw edema at 50 mg/kg after 2 hr
Bacillus subtilis [12] = assay: Antimicrobial activity against at Bacillus subtilis at 25 ug/ml by cup plate method; conditions: read-out: IZ
Rattus norvegicus [13] = assay: Anti-inflammatory activity in Rattus norvegicus Wistar albino (rat) assessed as protection against carrageenan-induced paw edema at 50 mg/kg after 30 min
Escherichia coli [14] = assay: Antimicrobial activity against at Escherichia coli at 25 ug/ml by cup-plate method; conditions: read-out: IZ
Escherichia coli [15] = assay: Antimicrobial activity against at Escherichia coli at 50 ug/ml by cup-plate method; conditions: read-out: IZ
Mus musculus [16] = assay: Analgesic activity in Mus musculus Swiss albino (mouse) assessed as increase in reaction time of paw licking or jump response at 50 mg/kg, po after 90 min by hot plate method
Mus musculus [17] = assay: Analgesic activity in Mus musculus Swiss albino (mouse) assessed as increase in reaction time of paw licking or jump response at 50 mg/kg, po after 60 min by hot plate method
Penicillium chrysogenum [18] = assay: Antimicrobial activity against at Penicillium chrysogenum at 50 ug/ml by cup-plate method; conditions: read-out: IZ
Penicillium chrysogenum [19] = assay: Antimicrobial activity against at Penicillium chrysogenum at 100 ug/ml by cup-plate method; conditions: read-out: IZ
Aspergillus niger [20] = assay: Antimicrobial activity against at Aspergillus niger at 25 ug/ml by cup-plate method; conditions: read-out: IZ
Mus musculus [21] = assay: Analgesic activity in Mus musculus Swiss albino (mouse) assessed as increase in reaction time of paw licking or jump response at 20 mg/kg, po after 90 min by hot plate method
Mus musculus [22] = assay: Analgesic activity in Mus musculus Swiss albino (mouse) assessed as increase in reaction time of paw licking or jump response at 20 mg/kg, po after 60 min by hot plate method

SMILES | zone of inhibition at 25 µg/mL (Penicillium chrysogenum [1]) [mm] | Activity (Rattus norvegicus [2]) [%] | zone of inhibition at 100 µg/mL (Escherichia coli [3]) [mm] | zone of inhibition at 50 µg/mL (Aspergillus niger [4]) [mm] | Activity (Rattus norvegicus [5]) [%] | zone of inhibition at 100 µg/mL (Bacillus subtilis [6]) [mm] | zone of inhibition at 50 µg/mL (Bacillus subtilis [7]) [mm] | Activity (Rattus norvegicus [8]) [%] | Activity (Mus musculus [9]) [%] | zone of inhibition at 100 µg/mL (Aspergillus niger [10]) [mm] | Activity (Rattus norvegicus [11]) [%] | zone of inhibition at 25 µg/mL (Bacillus subtilis [12]) [mm] | Activity (Rattus norvegicus [13]) [%] | zone of inhibition at 25 µg/mL (Escherichia coli [14]) [mm] | zone of inhibition at 50 µg/mL (Escherichia coli [15]) [mm] | Activity (Mus musculus [16]) [%] | Activity (Mus musculus [17]) [%] | zone of inhibition at 50 µg/mL (Penicillium chrysogenum [18]) [mm] | zone of inhibition at 100 µg/mL (Penicillium chrysogenum [19]) [mm] | zone of inhibition at 25 µg/mL (Aspergillus niger [20]) [mm] | further results
O=C1c2ccccc2-c2noc(-c3ccccc3[N+](=O)[O-])c21 | 5.25 | 6.33 | 19.8 | 7.25 | 9.52 | 14.2 | 7.5 | 7.11 | 5.24 | 19 | 8.01 | 4.25 | 7.22 | 5.25 | 12.8 | 9.84 | 7.62 | 8.25 | 14.2 | – | –
Cc1ccc(-c2onc3c2C(=O)c2ccccc2-3)cc1 | – | 43.66 | 25.3 | 18.5 | 30.33 | 15 | 10.5 | 45.72 | 15.55 | 28 | 36.45 | 6.77 | 35.29 | 10 | 15 | 27.01 | 23.12 | 6.75 | 15.5 | 10.5 | –
O=C([O-])Cc1ccccc1Nc1c(Cl)cccc1Cl.[Na+] [DICLOFENAC SODIUM] | – | – | – | – | – | – | – | – | – | – | – | – | – | – | – | – | – | – | – | – | Activity (Mus musculus [21]): 34.62%; Activity (Mus musculus [22]): 27.59%
CC1(C)S[C@@H]2[C@H](NC(=O)[C@H](N)c3ccccc3)C(=O)N2[C@H]1C(=O)O [AMPICILLIN] | – | – | 32.7 | – | – | 21.1 | 12.1 | – | – | – | – | 9.1 | – | 11.2 | 20.4 | – | – | – | – | – | –
COc1cc(-c2onc3c2C(=O)c2ccccc2-3)cc(OC)c1OC | 5.5 | 22.38 | 27.8 | 11.2 | 26.32 | 18.8 | 11.5 | 29.14 | 4.48 | 19.2 | 29.15 | 5.25 | 17.21 | – | 16.5 | 12.54 | 9.75 | 9.25 | 19 | 6.49 | –
O=C1c2ccccc2-c2noc(-c3ccc([N+](=O)[O-])cc3)c21 | 4.5 | 13.35 | 18.5 | 13.5 | 17.21 | 14.5 | 6.75 | 18.51 | 3.95 | 16.2 | 16.21 | 4.5 | 10.92 | 5.5 | 13 | 8.55 | 5.91 | 11 | 15 | 4.75 | –
O=C1c2ccccc2-c2noc(-c3ccc(Cl)cc3)c21 | – | 12 | 16 | 9.75 | 16.21 | 18.5 | 11.5 | 12.16 | 7.18 | 13 | 15.11 | 5.25 | 6.31 | 6 | 6.75 | 16.1 | 12.8 | 8.5 | 12 | 5.5 | –
O=C1c2ccccc2-c2noc(-c3ccccc3)c21 | 6 | 27.61 | 30.9 | 16.8 | 26.21 | 16.3 | 12 | 30.19 | 6.23 | 22.8 | 28.42 | 9 | 21.44 | 9.79 | 16.9 | 17.23 | 12.03 | 12.8 | 19.5 | 9.75 | –
COc1cccc(-c2onc3c2C(=O)c2ccccc2-3)c1O | 5.35 | 32.22 | 21 | 16.5 | 30.41 | 16 | – | 37.62 | 6 | 29.6 | 34.32 | 6.75 | 25.44 | 10.2 | 14.7 | 16.43 | 11.44 | 10.5 | 16.6 | 10.8 | –
